Reference: ChEMBL document CHEMBL1649156, “Antianaerobic activity of sulopenem compared to six other agents” (2009)
Values after ≈ are worked out from the molar mass of the structure shown.

Experiments:
Assay type in all cases: functional
Bacteroides uniformis = test: Antimicrobial activity in Bacteroides uniformis by CLSI agar dilution method
Prevotella denticola = test: Antimicrobial activity in Prevotella denticola by CLSI agar dilution method
Bacteroides stercoris = test: Antimicrobial activity in Bacteroides stercoris by CLSI agar dilution method
[1] = system: Prevotella melaninogenica; test: Antimicrobial activity in Prevotella melaninogenica by CLSI agar dilution method
Fusobacterium nucleatum = test: Antimicrobial activity in Fusobacterium nucleatum by CLSI agar dilution method
Bifidobacterium = test: Antimicrobial activity in Bifidobacterium by CLSI agar dilution method
Prevotella nigrescens = test: Antimicrobial activity in Prevotella nigrescens by CLSI agar dilution method
Clostridioides difficile = test: Antimicrobial activity in Clostridium difficile by CLSI agar dilution method
Prevotella salivae = test: Antimicrobial activity in Prevotella salivae by CLSI agar dilution method; settings: Segatella salivae
[2] = system: Fusobacterium necrophorum; test: Antimicrobial activity in Fusobacterium necrophorum by CLSI agar dilution method
Thomasclavelia ramosa = test: Antimicrobial activity in Clostridium ramosum by CLSI agar dilution method
[3] = system: Paraclostridium bifermentans; test: Antimicrobial activity in Clostridium bifermentans by CLSI agar dilution method
[4] = system: Peptostreptococcus anaerobius; test: Antimicrobial activity in Peptostreptococcus anaerobius by CLSI agar dilution method
Prevotella bivia = test: Antimicrobial activity in Prevotella bivia by CLSI agar dilution method
Tissierella praeacuta = test: Antimicrobial activity in Clostridium hastiforme by CLSI agar dilution method
Prevotella veroralis = test: Antimicrobial activity in Prevotella veroralis by CLSI agar dilution method
Prevotella corporis = test: Antimicrobial activity in Prevotella corporis by CLSI agar dilution method
[5] = system: Paeniclostridium sordellii; test: Antimicrobial activity in Clostridium sordellii by CLSI agar dilution method; settings: Paraclostridium sordellii
Hoylesella loescheii = test: Antimicrobial activity in Prevotella loescheii by CLSI agar dilution method
Bacteroides ovatus = test: Antimicrobial activity in Bacteroides ovatus by CLSI agar dilution method
Finegoldia magna = test: Antimicrobial activity in Finegoldia magna by CLSI agar dilution method
Clostridium cadaveris = test: Antimicrobial activity in Clostridium cadaveris by CLSI agar dilution method
Parvimonas micra = test: Antimicrobial activity in Micromonas micros by CLSI agar dilution method
[6] = system: Bacteroides thetaiotaomicron; test: Antimicrobial activity in Bacteroides thetaiotaomicron by CLSI agar dilution method
Prevotella disiens = test: Antimicrobial activity in Prevotella disiens by CLSI agar dilution method
[7] = system: Peptoniphilus asaccharolyticus; test: Antimicrobial activity in Peptoniphilus asaccharolyticus by CLSI agar dilution method
Clostridium butyricum = test: Antimicrobial activity in Clostridium butyricum by CLSI agar dilution method
Phocaeicola vulgatus = test: Antimicrobial activity in Bacteroides vulgatus by CLSI agar dilution method
Hoylesella oralis = test: Antimicrobial activity in Prevotella oralis group by CLSI agar dilution method
Actinomyces = test: Antimicrobial activity in Actinomyces by CLSI agar dilution method
Fusobacterium mortiferum = test: Antimicrobial activity in Fusobacterium mortiferum by CLSI agar dilution method
Clostridium sp. = test: Antimicrobial activity in Clostridium sp. by CLSI agar dilution method
Prevotella buccae = test: Antimicrobial activity in Prevotella buccae by CLSI agar dilution method; settings: Segatella buccae
Clostridium perfringens = test: Antimicrobial activity in Clostridium perfringens by CLSI agar dilution method
Prevotella bergensis = test: Antimicrobial activity in Prevotella bergensis by CLSI agar dilution method; settings: Hallella bergensis
Anaerococcus prevotii = test: Antimicrobial activity in Anaerococcus prevotii by CLSI agar dilution method
[8] = system: Enterocloster clostridioformis; test: Antimicrobial activity in Clostridium clostridioforme by CLSI agar dilution method
Anaerococcus tetradius = test: Antimicrobial activity in Anaerococcus tetradius by CLSI agar dilution method
Bacteroides fragilis = test: Antimicrobial activity in Bacteroides fragilis by CLSI agar dilution method
Fusobacterium varium = test: Antimicrobial activity in Fusobacterium varium by CLSI agar dilution method
Prevotella sp. = test: Antimicrobial activity in Prevotella sp.by CLSI agar dilution method
Porphyromonas gingivalis = test: Antimicrobial activity in Porphyromonas gingivalis by CLSI agar dilution method
Eggerthella lenta = test: Antimicrobial activity in Eggerthella lenta by CLSI agar dilution method
[Clostridium] innocuum = Antimicrobial activity in Clostridium innocuum by CLSI agar dilution method
Lactobacillus = test: Antimicrobial activity in Lactobacillus by CLSI agar dilution method
Prevotella intermedia = test: Antimicrobial activity in Prevotella intermedia by CLSI agar dilution method
Clostridium tertium = test: Antimicrobial activity in Clostridium tertium by CLSI agar dilution method
[9] = system: Parabacteroides distasonis; test: Antimicrobial activity in Bacteroides distasonis by CLSI agar dilution method

For `CCC[C@@H]1C[C@@H](C(=O)N[C@@H]([C@H]2O[C@H](SC)[C@H](O)[C@@H](O)[C@H]2O)[C@H](C)Cl)N(C)C1` [CLINDAMYCIN], which MIC (Bacteroides uniformis) is on record?
Its MIC is greater than 1 µg/mL.

And the MIC50 (Bacteroides uniformis)?
Its MIC50 is 2 µg/mL (≈ 4.71 µM).

And the MIC (Prevotella denticola)?
Its MIC is no more than 0.016 µg/mL.

And the MIC50 (Prevotella denticola)?
The MIC50 was no more than 0.016 µg/mL.

What about the MIC90 (Prevotella denticola) of the same molecule?
The MIC90 was 0.06 µg/mL (≈ 0.141 µM).

And the MIC (Bacteroides stercoris)?
Its MIC is greater than 4 µg/mL.

And the MIC50 (Bacteroides stercoris)?
The MIC50 was 8 µg/mL (≈ 18.8 µM).

What about the MIC [1] of the same molecule?
Its MIC is no more than 0.016 µg/mL.

What about the MIC50 [1] of the same molecule?
Its MIC50 is no more than 0.016 µg/mL.

And the MIC90 [1]?
Its MIC90 is 0.06 µg/mL (≈ 0.141 µM).

And the MIC50 (Fusobacterium nucleatum)?
The MIC50 was 0.06 µg/mL (≈ 0.141 µM).

What about the MIC90 (Fusobacterium nucleatum) of the same molecule?
Its MIC90 is 0.125 µg/mL (≈ 0.294 µM).

What about the MIC50 (Bifidobacterium) of the same molecule?
Its MIC50 is 0.03 µg/mL (≈ 0.0706 µM).

What about the MIC90 (Bifidobacterium) of the same molecule?
Its MIC90 is greater than 32 µg/mL.

What about the MIC (Prevotella nigrescens) of the same molecule?
Its MIC is no more than 0.016 µg/mL.

And the MIC50 (Prevotella nigrescens)?
Its MIC50 is no more than 0.016 µg/mL.

What about the MIC90 (Prevotella nigrescens) of the same molecule?
The MIC90 was no more than 0.016 µg/mL.

What about the MIC50 (Clostridioides difficile) of the same molecule?
The MIC50 was 4 µg/mL (≈ 9.41 µM).

What about the MIC90 (Clostridioides difficile) of the same molecule?
The MIC90 was greater than 32 µg/mL.

And the MIC (Prevotella salivae)?
The MIC was no more than 0.016 µg/mL.

And the MIC [2]?
The MIC was no more than 0.016 µg/mL.

And the MIC50 [2]?
The MIC50 was 0.03 µg/mL (≈ 0.0706 µM).

And the MIC (Thomasclavelia ramosa)?
The MIC was 2 µg/mL (≈ 4.71 µM).

What about the MIC [3] of the same molecule?
The MIC was 0.125 µg/mL (≈ 0.294 µM).

And the MIC [4]?
The MIC was no more than 0.016 µg/mL.

And the MIC50 [4]?
Its MIC50 is no more than 0.016 µg/mL.

What about the MIC90 [4] of the same molecule?
Its MIC90 is 0.25 µg/mL (≈ 0.588 µM).

What about the MIC50 (Prevotella bivia) of the same molecule?
Its MIC50 is no more than 0.016 µg/mL.

What about the MIC90 (Prevotella bivia) of the same molecule?
The MIC90 was greater than 32 µg/mL.

And the MIC (Tissierella praeacuta)?
Its MIC is 0.06 µg/mL (≈ 0.141 µM).

And the MIC (Prevotella veroralis)?
Its MIC is no more than 0.016 µg/mL.

And the MIC50 (Prevotella corporis)?
Its MIC50 is no more than 0.016 µg/mL.

And the MIC [5]?
The MIC was 0.25 µg/mL (≈ 0.588 µM).

What about the MIC (Hoylesella loescheii) of the same molecule?
The MIC was no more than 0.016 µg/mL.

What about the MIC50 (Bacteroides ovatus) of the same molecule?
The MIC50 was 2 µg/mL (≈ 4.71 µM).

What about the MIC90 (Bacteroides ovatus) of the same molecule?
Its MIC90 is greater than 32 µg/mL.

And the MIC50 (Finegoldia magna)?
Its MIC50 is 0.125 µg/mL (≈ 0.294 µM).

And the MIC90 (Finegoldia magna)?
The MIC90 was 2 µg/mL (≈ 4.71 µM).

What about the MIC (Clostridium cadaveris) of the same molecule?
Its MIC is 0.06 µg/mL (≈ 0.141 µM).

And the MIC (Parvimonas micra)?
The MIC was 0.125 µg/mL (≈ 0.294 µM).

And the MIC50 (Parvimonas micra)?
The MIC50 was 0.125 µg/mL (≈ 0.294 µM).

What about the MIC90 (Parvimonas micra) of the same molecule?
Its MIC90 is 0.25 µg/mL (≈ 0.588 µM).

What about the MIC50 [6] of the same molecule?
Its MIC50 is 4 µg/mL (≈ 9.41 µM).

What about the MIC90 [6] of the same molecule?
Its MIC90 is greater than 32 µg/mL.

What about the MIC (Prevotella disiens) of the same molecule?
The MIC was no more than 0.016 µg/mL.

And the MIC50 (Prevotella disiens)?
The MIC50 was no more than 0.016 µg/mL.

What about the MIC [7] of the same molecule?
The MIC was 0.06 µg/mL (≈ 0.141 µM).

What about the MIC50 [7] of the same molecule?
Its MIC50 is 0.125 µg/mL (≈ 0.294 µM).

What about the MIC (Clostridium butyricum) of the same molecule?
The MIC was 2 µg/mL (≈ 4.71 µM).

What about the MIC50 (Phocaeicola vulgatus) of the same molecule?
The MIC50 was 0.03 µg/mL (≈ 0.0706 µM).

And the MIC90 (Phocaeicola vulgatus)?
The MIC90 was 1 µg/mL (≈ 2.35 µM).

What about the MIC (Hoylesella oralis) of the same molecule?
The MIC was no more than 0.016 µg/mL.

And the MIC (Actinomyces)?
Its MIC is 0.03 µg/mL (≈ 0.0706 µM).

And the MIC50 (Actinomyces)?
The MIC50 was 0.125 µg/mL (≈ 0.294 µM).

What about the MIC50 (Fusobacterium mortiferum) of the same molecule?
The MIC50 was 0.06 µg/mL (≈ 0.141 µM).

What about the MIC90 (Fusobacterium mortiferum) of the same molecule?
The MIC90 was 0.125 µg/mL (≈ 0.294 µM).

And the MIC50 (Clostridium sp.)?
Its MIC50 is 1 µg/mL (≈ 2.35 µM).

What about the MIC90 (Clostridium sp.) of the same molecule?
Its MIC90 is 16 µg/mL (≈ 37.6 µM).

What about the MIC (Prevotella buccae) of the same molecule?
The MIC was no more than 0.016 µg/mL.

What about the MIC50 (Prevotella buccae) of the same molecule?
The MIC50 was no more than 0.016 µg/mL.

What about the MIC90 (Prevotella buccae) of the same molecule?
Its MIC90 is no more than 0.016 µg/mL.

What about the MIC50 (Clostridium perfringens) of the same molecule?
The MIC50 was 0.5 µg/mL (≈ 1.18 µM).

And the MIC90 (Clostridium perfringens)?
The MIC90 was 2 µg/mL (≈ 4.71 µM).

What about the MIC (Prevotella bergensis) of the same molecule?
The MIC was no more than 0.016 µg/mL.

And the MIC (Anaerococcus prevotii)?
The MIC was 0.125 µg/mL (≈ 0.294 µM).

What about the MIC [8] of the same molecule?
The MIC was 0.03 µg/mL (≈ 0.0706 µM).

What about the MIC50 (Anaerococcus tetradius) of the same molecule?
Its MIC50 is 0.5 µg/mL (≈ 1.18 µM).

What about the MIC90 (Anaerococcus tetradius) of the same molecule?
The MIC90 was 1 µg/mL (≈ 2.35 µM).

What about the MIC50 (Bacteroides fragilis) of the same molecule?
The MIC50 was 1 µg/mL (≈ 2.35 µM).

And the MIC90 (Bacteroides fragilis)?
Its MIC90 is greater than 32 µg/mL.

And the MIC50 (Fusobacterium varium)?
The MIC50 was 8 µg/mL (≈ 18.8 µM).

And the MIC90 (Fusobacterium varium)?
Its MIC90 is 32 µg/mL (≈ 75.3 µM).

And the MIC (Prevotella sp.)?
Its MIC is no more than 0.016 µg/mL.

And the MIC (Porphyromonas gingivalis)?
The MIC was no more than 0.016 µg/mL.

And the MIC50 (Eggerthella lenta)?
The MIC50 was 0.25 µg/mL (≈ 0.588 µM).

What about the MIC90 (Eggerthella lenta) of the same molecule?
The MIC90 was 1 µg/mL (≈ 2.35 µM).

And the MIC ([Clostridium] innocuum)?
Its MIC is 0.03 µg/mL (≈ 0.0706 µM).

And the MIC50 (Lactobacillus)?
Its MIC50 is 0.5 µg/mL (≈ 1.18 µM).

And the MIC90 (Lactobacillus)?
Its MIC90 is 4 µg/mL (≈ 9.41 µM).

And the MIC (Prevotella intermedia)?
The MIC was no more than 0.016 µg/mL.

What about the MIC50 (Prevotella intermedia) of the same molecule?
Its MIC50 is no more than 0.016 µg/mL.

And the MIC90 (Prevotella intermedia)?
Its MIC90 is no more than 0.016 µg/mL.

What about the MIC (Clostridium tertium) of the same molecule?
Its MIC is 8 µg/mL (≈ 18.8 µM).

And the MIC50 (Clostridium tertium)?
Its MIC50 is 8 µg/mL (≈ 18.8 µM).

What about the MIC50 [9] of the same molecule?
The MIC50 was 4 µg/mL (≈ 9.41 µM).

And the MIC90 [9]?
Its MIC90 is 16 µg/mL (≈ 37.6 µM).
